Patent US20140294994A1, “PHARMACEUTICAL COMPOSITION FOR ELIMINATION OF CANCER STEM CELLS” (priority 2011, published 2014)
pIC50: −log10 of the molar value. “Also recorded” adds a separate entry of the source. Values belong to the compound of their own block, whether it stands above or below them.

Legend:
A549 cells [1] = experiment: MTT assay (cell viability); type: cell-based, human
Source text: (§1) In addition to the commonly used cell lines (A549 and H1975), we also established several cell lines including CL83, CL141, CL152, CL25, and CL97 cell lines which were isolated from the pleural effusion of NSCLC patients at the National Taiwan University Hospital. The investigation was approved by the Institutional Review Board of the National Taiwan University Hospital. Informed consent was obtained before pleural effusion was collected.

CL141 cells [2] = experiment: Side population analysis (Hoechst 33342, flow cytometry); type: cell-based, human
Protocol: (§2) Single-cell suspensions of cells were detached from dishes with Trypsin-EDTA (Invitrogen) and suspended at 1×10^6 cells/mL in Hank's balanced salt solution (HBSS) supplemented with 3% fetal calf serum and 10 mM Hepes. […] After 90 minutes incubation, the cells were centrifuged immediately for 5 minutes at 300 g and 4° C. and resuspended in ice-cold HBSS. The cells were kept on ice to inhibit efflux of the Hoechst dye, and 1 μg/mL propidium iodide (BD) was added to discriminate dead cells. Finally, these cells were filtered through a 40 μm cell strainer (BD) to obtain single-suspension cells. Cell dual-wavelength analysis and purification were performed on a dual-laser FACS Vantage SE (BD). […] A 610 nm dichroic mirror short-pass (DMSP) was used to separate the emission wavelengths. PI-positive (dead) cells were excluded from the analysis.

A549 cells [3] = experiment: Clonogenic assay; type: cell-based, human
Protocol: The NSCLC cancer cell lines, A549, H1975, CL25, CL83, CL97, CL141, and CL152 were maintained in RPMI medium. Tested cells were seeded respectively in 6 well plates with 10^4 cells per well for 14 days. Each well contained 10 ml RPMI medium as cultured condition for NSCLC cells. […] Trifluoperazine and other tested drugs were added 24 hours after seeding of the cells. The medium and trifluoperazine were changed once on day 4. After the treatments, cells were washed with PBS, and the colonies were fixed with fix solution (acetic acid:methanol=1:3) and stained with 0.5% crystal violet in methanol. After removing the crystal violet carefully and rinse with tap water, the colonies were counted manually.

CL152 cells [4] = experiment: Aldefluor assay (ALDH-positive cells); type: cell-based, human; conditions: 5 μM, untreated 3.73%
Protocol: (§3) High aldehyde dehydrogenase (ALDH) enzyme activity was used to detect lung CSC populations in this study. The Aldefluor assay was performed according to the manufacturer's guidelines (StemCell Technologies). Briefly, single cells obtained from cell cultures were incubated in an Aldefluor assay buffer containing an ALDH substrate (bodipy-aminoacetaldehyde, BAAA) for 50 minutes at 37° C. As a negative control, a fraction of cells from each sample was incubated under identical conditions in the presence of an ALDH inhibitor (diethylaminobenzaldehyde, DEAB). Flow cytometry was used to measure the ALDH-positive cell population.

CL141 cells [5] = experiment: Aldefluor assay (ALDH-positive cells); type: cell-based, human
Protocol: as §3

CL97 spheroids [6] = experiment: Western blotting analysis of cancer spheroids; type: cell-based, human
Protocol: (§4) Cells were lysed in lysis buffer (50 mM Tris-HCl, pH 7.4, 5 mM MgCl2, 1% Nonidet P-40, 150 mM NaCl, 1 mM phenylmethylsulfonyl fluoride). Total protein was isolated and subjected to SDS polyacrylamide gel electrophoresis and electrotransfered onto PVDF membranes (Millipore). Primary antibodies Bax, Bak, Bcl-2, XIAP, Mcl-1, Cleaved Caspase 9, Caspase 3, […], c-Myc, CD44, cyclin D1 were obtained from Cell Signaling, Met was purchased from Santa Cruz and CD133 was from Miltenyi Biotec, and secondary antibodies for anti-mouse and anti-rabbit horseradish preoxidase (HRP)-conjugation were from Chemicon International. The protein detection was performed with enhanced chemiluminescence (ECL™) method captured by a Luminescence Imaging System (LAS-4000™, Fuji Photo Film Co., Ltd).

CL141 cells [7] = experiment: Annexin V/PI staining apoptosis analysis; type: cell-based, human; conditions: 48 hours, versus control cells
Protocol: […]. Annexin V/PI staining was performed after treatment with different dosages of trifluoperazine. Both early and late apoptotic cells were counted.

CL141 spheroids [8] = experiment: Soft agar assay (colony formation); type: cell-based, human; conditions: 12 days, control 92
Protocol: Freshly sorted CL141 side population (SP) and non-side population (NSP) cells were counted and plated in triplicate at 200 cells per well in six-well plates coated with 1% agarose. Anchorage-independent growth was assessed after incubation for 10-14 days in culture media with or without trifluoperazine (0, 5 and 10 μM), which was replaced every 4 days. Plates were stained with 0.005% crystal violet, and the colonies were counted manually under a microscope and photographed.

CL97 cells [9] = experiment: Side population analysis (Hoechst 33342, flow cytometry); type: cell-based, human; conditions: 5 μM, untreated 1.9%
Protocol: as §2

CL83 cells [10] = experiment: as above; type: cell-based, human; conditions: 5 μM, untreated 1.54%
Protocol: as §2

CL97-L2G tumor samples = experiment: Protein profiles of tumor biopsies (Western blot); type: in vivo, NOD/SCID mice; conditions: tumor biopsies of treated mice
Protocol: Total cell lysates were harvested from tumor biopsies of mice which received different treatments and their protein profiles were examined.
as §4
(§5) . […] CL97-L2G-bearing mice (both bulk lung tumor and CSC models) were imaged weekly using the IVIS 200 system (Caliper Life Sciences). Data are expressed as fold change in total photon flux/initial total photon flux and were analyzed using Living Image 1.0 software (Caliper Life Sciences). Mice were humanely sacrificed at the end of experiments and lung tumor biopsies were obtained for further analysis.

CL97-L2G spheroids = experiment: Prevention experiment, pretreated spheroids orthotopically injected into lung; type: in vivo, NOD/SCID mice; conditions: cells pre-treated with 5 μM overnight, versus vehicle-treated control
Protocol: as §5

CL141 spheroids [11] = experiment: Tumor spheroid assay; type: cell-based, human; conditions: 48 hr
CL97-L2G cells = experiment: Bulk lung tumor model, bioluminescent imaging; type: in vivo, NOD/SCID mice; conditions: 4 weeks, trifluoperazine 5 mg/kg/day i.p., gefitinib 150 mg/kg/day oral gavage, combination trifluoperazine 5 mg/kg/day i.p. + gefitinib 100 mg/kg/day oral
Protocol: For bulk lung tumor model, CL97-[…] cells were intravenously administered into the animals via tail vein at a concentration of 1×10^6 cells/100 μl PBS. One week post tumor injection, different treatment regimens were started. […] CL97-[…]-bearing mice (both bulk lung tumor and CSC models) were imaged weekly using the IVIS 200 system (Caliper Life Sciences). Data are expressed as fold change in total photon flux/initial total photon flux and were analyzed using Living Image 1.0 software (Caliper Life Sciences). Mice were humanely sacrificed at the end of experiments and lung tumor biopsies were obtained for further analysis.

CL152 cells [12] = experiment: MTT assay (cell viability); type: cell-based; conditions: Homo sapiens; CL152 cell line, 48 hour incubation; read-out: IC50 for trifluoperazine
Source text: as §1

CL97 cells [13] = experiment: MTT assay (cell viability); type: cell-based; conditions: Homo sapiens; CL97 cell line, 48 hour incubation; read-out: IC50 for trifluoperazine
Source text: as §1

CL83 cells [14] = experiment: MTT assay (cell viability); type: cell-based; conditions: Homo sapiens; CL83 cell line, 48 hour incubation; read-out: IC50 for trifluoperazine
Source text: as §1

H1975 cells = experiment: MTT assay (cell viability); type: cell-based; conditions: Homo sapiens, NCI-H1975; H1975 cell line, 48 hour incubation; read-out: IC50 for trifluoperazine
Source text: as §1

CL141 cells [15] = experiment: MTT assay (cell viability); type: cell-based; conditions: Homo sapiens; CL141 cell line, 48 hour incubation; read-out: IC50 for trifluoperazine
Source text: as §1

CL25 cells = experiment: MTT assay (cell viability); type: cell-based; conditions: Homo sapiens; CL25 cell line, 48 hour incubation; read-out: IC50 for trifluoperazine
Source text: as §1

CL97 spheroids [16] = experiment: Tumor spheroid assay; type: cell-based, human; conditions: 48 hr
CL83 spheroids [17] = experiment: Tumor spheroid assay; type: cell-based, human; conditions: 48 hr
CL141 spheroids [18] = experiment: Western blotting and immunochemical staining of cancer spheroids; type: cell-based, human; conditions: CL141 spheroids, 0, 2.5, 5 and 10 μM, 48 hours
Protocol: as §4

CL97 spheroids [19] = experiment: Cisplatin response of spheroids versus parental cells (IC50, viability, caspase-3 activity); type: cell-based, human
Source text: (§6) We selected three gefitinib-resistant NSCLC cell lines, CL141 (wild type EGFR), CL83 (wild type EGFR) and CL97 (EGFR-G719A+T790M acquired resistant mutation) to determine if trifluoperazine could sensitize these cells towards chemotherapeutic agents.

CL83 spheroids [20] = experiment: as above; type: cell-based, human
Source text: as §6

CL141 spheroids [21] = experiment: as above; type: cell-based, human
Source text: as §6

[22] = Homo sapiens, A549 cells, read-out: MTT assay (IC50)
[23] = A549 cells, read-out: MTT assay (IC50)

Compound: CC(=O)c1ccc2c(c1)N(CCCN(C)C)c1ccccc1S2 [Acepromazine]
pIC50 (A549 cells [1]; [22]): < 5.00
Reduced side population (CL141 cells [2]): No
pIC50 (A549 cells [3]; Homo sapiens): 5.60 to 6.00

Compound: CN(C)CCCN1c2ccccc2Sc2ccc(Cl)cc21 [Chlorpromazine]
pIC50 (A549 cells [1]; [23]): 5.00 to 5.30
Reduced side population (CL141 cells [2]): Yes
pIC50 (A549 cells [3]): 5.30 to 5.60

Compound: OCCN1CCN(CCCN2c3ccccc3Sc3ccc(C(F)(F)F)cc32)CC1 [Fluphenazine]
Reduced side population (CL141 cells [2]): No

Compound: CN1CCN(CCCN2c3ccccc3Sc3ccc(Cl)cc32)CC1 [Prochlorperazine]
Reduced side population (CL141 cells [2]): No

Compound: N.N.[Cl][Pt][Cl] [cisplatin]
IC50 of spheroids compared with parental cells (CL97 spheroids [19]): significantly higher IC50
caspase-3 activity of spheroids compared with parental cells (CL97 spheroids [19]; 10 μM, 24 hours): lower caspase-3 activity
viability of spheroids compared with parental cells (CL97 spheroids [19]; 10 μM, 24 hours): higher viability
IC50 of spheroids compared with parental cells (CL83 spheroids [20]): significantly higher IC50
caspase-3 activity of spheroids compared with parental cells (CL83 spheroids [20]; 10 μM, 24 hours): lower caspase-3 activity
viability of spheroids compared with parental cells (CL83 spheroids [20]; 10 μM, 24 hours): higher viability
IC50 of spheroids compared with parental cells (CL141 spheroids [21]): significantly higher IC50
caspase-3 activity of spheroids compared with parental cells (CL141 spheroids [21]; 10 μM, 24 hours): lower caspase-3 activity
viability of spheroids compared with parental cells (CL141 spheroids [21]; 10 μM, 24 hours): higher viability

Compound: COc1cc2ncnc(Nc3ccc(F)c(Cl)c3)c2cc1OCCCN1CCOCC1 [gefitinib]
c-Myc and β-catenin expression in tumor samples (CL97-L2G tumor samples): did not significantly influence
tumor burden (fold change in bioluminescence intensity) (CL97-L2G cells): not significantly different
tumor burden (fold change in bioluminescence intensity) (CL97-L2G cells; listed as genfitnib): no effects in suppressing tumor recurrence

Compound: Pherphenazine [Perphenazine]
pIC50 (A549 cells [1]; [23]): < 5.00
Reduced side population (CL141 cells [2]): Yes
pIC50 (A549 cells [3]): 5.00 to 5.30

Compound: Thioridazine
Reduced side population (CL141 cells [2]): Yes

Second part, led by results:

pIC50 (A549 cells [1]; [22]): < 5.00
Compound: CN(C)CCCN1c2ccccc2Sc2ccccc21 [Promazine]
Reduced side population (CL141 cells [2]): Yes

pIC50 (A549 cells [1]; Homo sapiens, A549 cell line, read-out: IC50 for trifluoperazine): < 5.00
pIC50 (A549 cells [1]; [22]): < 5.00
pIC50 (H1975 cells): 4.82
pIC50 (A549 cells [3]; Homo sapiens): 5.60 to 5.90
Compound: CN1CCN(CCCN2c3ccccc3Sc3ccc(C(F)(F)F)cc32)CC1 [Trifluoperazine]
ALDH-positive cell population after treatment (CL152 cells [4]): 1.08%
ALDH-positive cell population after treatment (CL141 cells [5]; CL141 cells, 5 μM, untreated 4.31%): 0.84%
percentage of ALDH+ CL141 cells (CL141 cells [5]; trifluoperazine 10 μM alone or combined with 5 μM gefitinib): moderately decreased
Bax, Bak, cleaved PARP, caspase-3 and caspase-9 levels (CL97 spheroids [6]; CL97 cancer spheroids): increased dose-dependently
anti-apoptotic Bcl-2, XIAP and Mcl-1 levels (CL97 spheroids [6]; CL97 cancer spheroids): decreased
CD44 and CD133 expression (CL97 spheroids [6]; CL97 spheroids, 0, 2.5, 5 and 10 μM, 48 hours): dose-dependently down-regulated
Cyclin D1, c-Myc and c-Met expression (CL97 spheroids [6]; CL97 spheroids, 48 hr): decreased
Annexin V-positive cells (CL141 cells [7]): dose-dependent increase
mean colony number on soft agar (CL141 spheroids [8]; 5 μM): 32
mean colony number on soft agar (CL141 spheroids [8]; 10 μM): 8
percentage of side population cells after treatment (CL97 cells [9]): significantly decreased
percentage of side population cells after treatment (CL83 cells [10]): significantly decreased
Reduced side population (CL141 cells [2]): Yes
Cyclin D1 expression in tumor samples (CL97-L2G tumor samples): suppressed
activated form of caspase 3 in tumor samples (CL97-L2G tumor samples): increased
in-situ tumor growth (fold change in BLI) (CL97-L2G spheroids): significantly delayed and suppressed; also recorded: delayed and significantly reduced in-situ tumor growth
size and number of spheroids (CL141 spheroids [11]): dose-dependently decreased
tumor burden (fold change in bioluminescence intensity) (CL97-L2G cells): significantly reduced tumor burden; also recorded: significantly lower tumor burden
pIC50 (CL152 cells [12]): 4.92
pIC50 (CL97 cells [13]): 5.14
pIC50 (CL83 cells [14]): 4.85
pIC50 (CL141 cells [15]): 5.07
pIC50 (CL25 cells): 4.89
size and number of spheroids (CL97 spheroids [16]): dose-dependently decreased
size and number of spheroids (CL83 spheroids [17]): dose-dependently decreased
CD44 and CD133 expression (CL141 spheroids [18]): dose-dependently down-regulated

pIC50 (A549 cells [1]; [22]): < 5.00
Compound: CN(C)CCCN1c2ccccc2Sc2ccc(C(F)(F)F)cc21 [Triflupromazine]
Reduced side population (CL141 cells [2]): Yes

pIC50 (A549 cells [1]; [23]): < 5.00
pIC50 (A549 cells [3]): 5.00 to 5.30
Compound: Promethazine
Reduced side population (CL141 cells [2]): No
